Assay results reported in patent publication US20150044316A1, “METHOD FOR PREPARING A PURIFIED EXTRACT OF LONICERA JAPONICA THUNBERG AND THE COMPOSITION COMPRISING THE SAME FOR PREVENTING AND TREATING SEPSIS AND SEPTIC SHOCK” (Huons Co., Ltd., priority 2012, published 2015).

Tested on: severe sepsis CLP model
Settings: severe sepsis CLP mice
Method: To assess the treating activity of the combination of the purified extract prepared in the Examples with antibiotics on severe sepsis, following experiment was performed by using severe sepsis CLP model according to the modified procedure disclosed in the procedure (Daniel Rittirsch, et al. Immuodesign of Experimental sepsis by cecal ligation and puncture. Nature Protocols, Vol. 4(1), pp 31-36, 2009).
Anesthetic(ketamine hydrochloride, 100 mg/kg, Yuhan Pharm. Co.) was intraperitoneally injected to the mice (ICR female, 23-25 g, 8 weeks-old, www.dhbiolink.com) and sepsis was induced to the mice using by CLP (Cecal ligation and puncture). Cavus abdominis medians was dissected and cecum was exposed to ligate the distal ileocecal valve by silk suture (medical suture thread No. 1 & No. 2, www. lead-care.com), Two-holes were made at the cecum by a thread so as to exude the certain amount of fecal material. The cecum was put into the abdominal cavity together with fecal material and physiological saline solution was subcutaneously injected thereto to induce sepsis.
In particular, the suturing position of the distal ileocecal valve was changed and the number of puncture was more than 2 to increase the amount of fecal material in this experiment in order to inducing severe sepsis CLP model.

[1] = imipenem 25 mg/kg, HS-23 40 mg/kg

C[C@@H](O)[C@H]1C(=O)N2C(C(=O)O)=C(SCCN=CN)C[C@H]12 [Imipenem, imipenem]
survival rate at 1st day after the CLP (imipenem 25 mg/kg every 12 hours for 4 days, HS-23 40 mg/kg i.v.): 83%
final survival rate at 10th days [1]: 33%
survival rate at 2nd day after the CLP [1]: 58%
survival rate at 3rd day after the CLP [1]: 50%
survival rate at 4th day to 10th day after the CLP [1]: 42%
